Assay results: patent publication US8242150B2, “Triazole derivatives for treating alzheimer'S disease and related conditions” (Merck Sharp & Dohme Corp., priority 2007, dated 2012)
pIC50: −log10 of the molar value. Values joined by “and” are separate entries in the source; they are usually repeats but may differ in a detail not shown here. Equal entries are not always repeated. Structures can show the parent of a compound that is named as a salt. Where two headings read alike, the source gives them in different places.

System: Aβ(1-42)
Assay: Cell-based γ-secretase assay, Aβ(42) detection
Set-up: species or system Human
Settings: read-out: Aβ42 IC50
Experimental: Cell-Based γ-Secretase Assay
Human SH-SY5Y neuroblastoma cells overexpressing the direct γ-secretase substrate SPA4CT were induced with sodium butyrate (10 mM) for 4 hours prior to plating. Cells were plated at 35,000 cells/well/100 μl in 96-well plates in phenol red-free MEM/10% FBS, 50 mM HEPES, 1% Glutamine and incubated for 2 hrs at 37° C., 5% CO2.
Compounds for testing were diluted into Me2SO to give a ten point dose-response curve. Typically 10 μl of these diluted compounds in Me2SO were further diluted into 182 μl dilution buffer (phenol red-free MEM/10% FBS, 50 mM HEPES, 1% Glutamine) and 10 μl of each dilution was added to the cells in 96-well plates (yielding a final Me2SO concentration of 0.5%). Appropriate vehicle and inhibitor controls were used to determine the window of the assay.
After incubation overnight at 37° C., 5% CO2, 25 μl and 50 μl media were transferred into a standard Meso avidin-coated 96-well plate for detection of Aβ(40) and Aβ(42) peptides, respectively. 25 μl Meso Assay buffer (PBS, 2% BSA, 0.2% Tween-20) was added to the Aβ(40) wells followed by the addition of 25 μl of the respective antibody premixes to the wells:
Aβ(42) premix: 1 μg/ml ruthenylated G2-11 antibody, 4 μg/ml; and biotinylated 4G8 antibody diluted in Origen buffer
(Biotinylated 4G8 antibody supplied by Signet Pathology Ltd; G2-10 and G2-11 antibodies supplied by Chemicon)
After overnight incubation of the assay plates on a shaker at 4° C., the Meso Scale Sector 6000 Imager was calibrated according to the manufacturer's instructions. After washing the plates 3 times with 150 μl of PBS per well, 150 μl Meso Scale Discovery read buffer was added to each well and the plates were read on the Sector 6000 Imager according to the manufacturer's instructions.
LD50 and IC50 values for inhibition of Aβ(40) and Aβ(42) were calculated by nonlinear regression fit analysis using the appropriate software (eg. Excel fit). The total signal and the background were defined by the corresponding Me2SO and inhibitor controls.

[1] = Homo sapiens, SH-SY5Y, SH-SY5Y cells overexpressing SPA4CT, two values in a cell = individual enantiomers

Compound	pIC50 [1]	also measured
COc1cc(-c2cn(C3CCc4ccccc4NC3=O)nn2)ccc1-n1cnc(C)c1 (racemic) [Example 2, (R) and (S)-3-{4-[3-methoxy-4-(4-methyl-imidazol-1-yl)-phenyl]-1,2,3-triazol-1-yl}-1,3,4,5-tetrahydro-1-benzazepin-2-one]	–	pIC50 (SH-SY5Y cells overexpressing SPA4CT, two values in a cell = individual enantiomers): 6.41 and 5.88
COc1cc(-c2cn(CC(=O)N(c3ccccc3)C3CCCCC3)nn2)ccc1-n1cnc(C)c1 [Example 1, N-cyclohexyl-2-{4-[3-methoxy-4-(4-methyl-imidazol-1-yl)-phenyl]-1,2,3-triazol-1-yl}-N-phenyl-acetamide]	6.21	–
COc1cc(-c2cn(Cc3ccc(C(C)(C)C)cc3)nn2)ccc1-n1cnc(C)c1 [Example 3, 1-(4-tert-butyl-benzyl)-4-[3-methoxy-4-(4-methyl-imidazole-1-yl)-phenyl]-1H-[1,2,3]triazole trifluoroacetate salt]	–	pIC50 (Homo sapiens, SH-SY5Y): 6.51
COc1cc(-c2cn(CSc3ccccc3)nn2)ccc1-n1cnc(C)c1 [Example 4, 4-[3-Methoxy-4-(4-methyl-imidazol-1-yl)-phenyl]-1-phenylsulfanylmethyl-1H-[1,2,3]triazole trifluoroacetate salt]	6.28	–
COc1cc(-c2cn(Cc3ccc(-c4nc5ccccc5o4)cc3)nn2)ccc1-n1cnc(C)c1 [Example 6, 2-(4-{4-[3-Methoxy-4-(4-methyl-imidazol-1-yl)-phenyl]-[1,2,3]triazol-1-ylmethyl}-phenyl)-benzooxazole trifluoroacetate salt]	–	pIC50 (Homo sapiens, SH-SY5Y): 6.75
COc1cc(-c2cn(CC(=O)N3CCCC4CCCCC43)nn2)ccc1-n1cnc(C)c1 (stereo not shown) [Example 8, 2-{4-[3-Methoxy-4-(4-methyl-imidazol-1-yl)-phenyl]-[1,2,3]triazol-1-yl}-1-(octahydro-quinolin-1-yl)-ethanone trifluoroacetate salt]	5.97	–

Continued, in another order:

pIC50 [1]	Compound	also measured
5.57	COc1cc(-c2cn(C(C)c3ccccc3)nn2)ccc1-n1cnc(C)c1 (stereo not shown) [Example 5, 4-[3-Methoxy-4-(4-methyl-imidazol-1-yl)-phenyl]-1-(1-phenyl-ethyl)-1H-[1,2,3]triazole trifluoroacetate salt]	–
5.65	COc1cc(-c2cn(C(F)(F)c3ccc(C(F)F)cc3)nn2)ccc1-n1cnc(C)c1 [Example 7, 1-[(4-Difluoromethyl-phenyl)-difluoro-methyl]-4-[3-methoxy-4-(4-methyl-imidazol-1-yl)-phenyl]-1H-[1,2,3]triazole trifluoracetate salt]	–
6.03	COc1cc(-c2cn(C(F)(F)C(=O)NCc3ccc(F)cc3)nn2)ccc1-n1cnc(C)c1 [Example 9, 2,2-Difluoro-N-(4-fluoro-benzyl)-2-{4-[3-methoxy-4-(4-methyl-imidazol-1-yl)-phenyl]-[1,2,3]triazol-1-yl}-acetamide trifluoroacetate salt]	–
7.08	COc1cc(-c2cn(CC(=O)N(CC(F)(F)F)c3ccc(F)c(Cl)c3)nn2)ccc1-n1cnc(C)c1 [Example 12, N-(3-chloro-4-fluorophenyl)-2-{4-[3-methoxy-4-(4-methyl-1H-imidazol-1-yl)phenyl]-1H-1,2,3-triazol-1-yl}-N-(2,2,2-trifluoroethyl)acetamide trifluoroacetate salt]	–
